Data reported in PubChem BioAssay (NCI).
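Method: 48-hour compound exposure of cells in 96-well plates, five concentrations, linear interpolation of endpoints. At the GI50, growth is halved. At the TGI there is no net growth.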

Legend:
Experiment in all cases: growth of human tumour cells (NCI), 48 h
[1] = test system: HCT-116 colon
[2] = test system: EKVX NSCLC
[3] = test system: MDA-MB-231 breast
[4] = test system: MOLT-4 leukemia
[5] = test system: DU-145 prostate
[6] = test system: UO-31 renal
[7] = test system: 786-0 renal
[8] = test system: SF-268 CNS
[9] = test system: SK-OV-3 ovarian
[10] = test system: NCI-H226 lung
[11] = test system: TK-10 renal
[12] = test system: OVCAR-8 ovarian
[13] = test system: SF-539 CNS
[14] = test system: SK-MEL-28 melanoma
[15] = test system: SNB-19 CNS
[16] = test system: RPMI-8226 leukemia
[17] = test system: RXF 393 renal
[18] = test system: K-562 leukemia
[19] = test system: NCI/ADR-RES ovarian
[20] = test system: HCT-15 colon
[21] = test system: COLO 205 colon
[22] = test system: SF-295 CNS
[23] = test system: OVCAR-5 ovarian
[24] = test system: OVCAR-3 ovarian
[25] = test system: MDA-MB-435
[26] = test system: BT-549 breast
[27] = test system: HL-60(TB) leukemia
[28] = test system: SK-MEL-5 melanoma
[29] = test system: MALME-3M melanoma
[30] = test system: KM12 colon
[31] = test system: NCI-H522 lung
[32] = test system: LOX IMVI melanoma
[33] = test system: OVCAR-4 ovarian
[34] = test system: U251 CNS
[35] = test system: HOP-62 NSCLC
[36] = test system: CCRF-CEM leukemia
[37] = test system: NCI-H23 lung
[38] = test system: CAKI-1 renal
[39] = test system: SK-MEL-2 melanoma
[40] = test system: HOP-92 NSCLC
[41] = test system: SN12C renal
[42] = test system: NCI-H460 lung
[43] = test system: A498 renal
[44] = test system: UACC-257 melanoma
[45] = test system: SR leukemia
[46] = test system: MCF7 breast
[47] = test system: M14 melanoma
[48] = test system: ACHN renal
[49] = test system: SNB-75 CNS
[50] = test system: IGROV1 ovarian
[51] = test system: SW-620 colon
[52] = test system: A549 NSCLC
[53] = test system: T-47D breast
[54] = test system: HT29 colon
[55] = test system: HS 578T breast
[56] = test system: UACC-62 melanoma
[57] = test system: PC-3 prostate
[58] = test system: HCC-2998 colon

SMILES: CCOC(=O)C1=C(c2ccccc2)N(c2ccc(OC)cc2)[C@]2(C#N)C(O)=C(Cl)C(Cl)=C(O)[C@]12C#N
- GI50 [1]: 16.3 µM
- TGI [1]: 29.8 µM
- GI50 [2]: 40.1 µM
- TGI [2]: > 100 µM
- GI50 [3]: 20.1 µM
- TGI [3]: 44.3 µM
- GI50 [4]: 21.9 µM
- TGI [4]: 56.9 µM
- GI50 [5]: 31.9 µM
- TGI [5]: > 100 µM
- GI50 [6]: 24.6 µM
- TGI [6]: 68 µM
- GI50 [7]: 21.8 µM
- TGI [7]: 44.9 µM
- GI50 [8]: 24 µM
- TGI [8]: 52.2 µM
- GI50 [9]: 23.4 µM
- TGI [9]: 62.7 µM
- GI50 [10]: 20.2 µM
- TGI [10]: 42.5 µM
- GI50 [11]: 24.3 µM
- TGI [11]: 74.8 µM
- GI50 [12]: 33 µM
- TGI [12]: > 100 µM
- GI50 [13]: 24.5 µM
- TGI [13]: 56.3 µM
- GI50 [14]: 21.3 µM
- TGI [14]: 41.9 µM
- GI50 [15]: 20.5 µM
- TGI [15]: 42.1 µM
- GI50 [16]: 1.97 µM
- TGI [16]: 18 µM
- GI50 [17]: 17.4 µM
- TGI [17]: 31.5 µM
- GI50 [18]: 17.6 µM
- TGI [18]: 34.6 µM
- GI50 [19]: 15.6 µM
- TGI [19]: 36.5 µM
- GI50 [20]: 19.2 µM
- TGI [20]: 40.8 µM
- GI50 [21]: 18.6 µM
- TGI [21]: 33.5 µM
- GI50 [22]: 25.9 µM
- TGI [22]: 76.7 µM
- GI50 [23]: 18.5 µM
- TGI [23]: 39 µM
- GI50 [24]: 22.7 µM
- TGI [24]: 53.2 µM
- GI50 [25]: 18.8 µM
- TGI [25]: 37.1 µM
- GI50 [26]: 24.2 µM
- TGI [26]: 56.4 µM
- GI50 [27]: 24.5 µM
- TGI [27]: 50.1 µM
- GI50 [28]: 22.1 µM
- TGI [28]: 51.9 µM
- GI50 [29]: 18.7 µM
- TGI [29]: 42.6 µM
- GI50 [30]: 18.3 µM
- TGI [30]: 36.5 µM
- GI50 [31]: 21.3 µM
- TGI [31]: 46.6 µM
- GI50 [32]: 16.4 µM
- TGI [32]: 30.9 µM
- GI50 [33]: 46.3 µM
- TGI [33]: > 100 µM
- GI50 [34]: 22.5 µM
- TGI [34]: 52.5 µM
- GI50 [35]: 20.9 µM
- TGI [35]: 40.1 µM
- GI50 [36]: 10.1 µM
- TGI [36]: 23.6 µM
- GI50 [37]: 17.7 µM
- TGI [37]: 33.1 µM
- GI50 [38]: 27.9 µM
- TGI [38]: 80.1 µM
- GI50 [39]: 32.4 µM
- TGI [39]: > 100 µM
- GI50 [40]: 0.545 µM
- TGI [40]: 23.3 µM
- GI50 [41]: 18.8 µM
- TGI [41]: 36.3 µM
- GI50 [42]: 35 µM
- TGI [42]: > 100 µM
- GI50 [43]: 35.8 µM
- TGI [43]: > 100 µM
- GI50 [44]: 22.2 µM
- TGI [44]: 52.2 µM
- GI50 [45]: 11.5 µM
- TGI [45]: 28.8 µM
- GI50 [46]: 18.7 µM
- TGI [46]: 36.1 µM
- GI50 [47]: 20.9 µM
- TGI [47]: 41.3 µM
- GI50 [48]: 19.7 µM
- TGI [48]: 42.1 µM
- GI50 [49]: 18.4 µM
- TGI [49]: 36.7 µM
- GI50 [50]: 21.7 µM
- TGI [50]: 48.6 µM
- GI50 [51]: 20.2 µM
- TGI [51]: 38.4 µM
- GI50 [52]: 69.1 µM
- TGI [52]: > 100 µM
- GI50 [53]: 21.2 µM
- TGI [53]: 44.9 µM
- GI50 [54]: 34.8 µM
- TGI [54]: > 100 µM
- GI50 [55]: 43.5 µM
- TGI [55]: > 100 µM

SMILES: Cc1cn2c(=O)n(c1=O)Cc1ccccc1C2
- GI50 [1]: 27.3 µM
- TGI [1]: > 100 µM
- GI50 [2]: > 100 µM
- TGI [2]: > 100 µM
- GI50 [3]: 5.84 µM
- TGI [3]: > 100 µM
- GI50 [5]: > 100 µM
- TGI [5]: > 100 µM
- GI50 [6]: 32.3 µM
- TGI [6]: > 100 µM
- GI50 [7]: 68.7 µM
- TGI [7]: > 100 µM
- GI50 [56]: 63.1 µM
- TGI [56]: > 100 µM
- GI50 [8]: 38.6 µM
- TGI [8]: > 100 µM
- GI50 [9]: 5.79 µM
- TGI [9]: > 100 µM
- GI50 [11]: > 100 µM
- TGI [11]: > 100 µM
- GI50 [12]: 46.6 µM
- TGI [12]: > 100 µM
- GI50 [13]: > 100 µM
- TGI [13]: > 100 µM
- GI50 [14]: > 100 µM
- TGI [14]: > 100 µM
- GI50 [15]: > 100 µM
- TGI [15]: > 100 µM
- GI50 [57]: > 100 µM
- TGI [57]: > 100 µM
- GI50 [16]: 28.3 µM
- TGI [16]: > 100 µM
- GI50 [17]: 19.5 µM
- TGI [17]: > 100 µM
- GI50 [18]: > 100 µM
- TGI [18]: > 100 µM
- GI50 [19]: > 100 µM
- TGI [19]: > 100 µM
- GI50 [20]: > 100 µM
- TGI [20]: > 100 µM
- GI50 [21]: 1.04 µM
- TGI [21]: 31.9 µM
- GI50 [58]: > 100 µM
- TGI [58]: > 100 µM
- GI50 [22]: > 100 µM
- TGI [22]: > 100 µM
- GI50 [23]: > 100 µM
- TGI [23]: > 100 µM
- GI50 [24]: > 100 µM
- TGI [24]: > 100 µM
- GI50 [25]: > 100 µM
- TGI [25]: > 100 µM
- GI50 [26]: 48.4 µM
- TGI [26]: > 100 µM
- GI50 [27]: > 100 µM
- TGI [27]: > 100 µM
- GI50 [28]: 83.1 µM
- TGI [28]: > 100 µM
- GI50 [29]: > 100 µM
- TGI [29]: > 100 µM
- GI50 [30]: > 100 µM
- TGI [30]: > 100 µM
- GI50 [31]: 43.4 µM
- TGI [31]: > 100 µM
- GI50 [32]: 32 µM
- TGI [32]: > 100 µM
- GI50 [33]: > 100 µM
- TGI [33]: > 100 µM
- GI50 [34]: > 100 µM
- TGI [34]: > 100 µM
- GI50 [35]: > 100 µM
- TGI [35]: > 100 µM
- GI50 [36]: 50.6 µM
- TGI [36]: > 100 µM
- GI50 [37]: > 100 µM
- TGI [37]: > 100 µM
- GI50 [38]: > 100 µM
- TGI [38]: > 100 µM
- GI50 [39]: > 100 µM
- TGI [39]: > 100 µM
- GI50 [40]: > 100 µM
- TGI [40]: > 100 µM
- GI50 [41]: > 100 µM
- TGI [41]: > 100 µM
- GI50 [42]: > 100 µM
- TGI [42]: > 100 µM
- GI50 [43]: 35.1 µM
- TGI [43]: > 100 µM
- GI50 [44]: > 100 µM
- TGI [44]: > 100 µM
- GI50 [46]: 35.1 µM
- TGI [46]: > 100 µM
- GI50 [47]: > 100 µM
- TGI [47]: > 100 µM
- GI50 [48]: > 100 µM
- TGI [48]: > 100 µM
- GI50 [49]: 85.9 µM
- TGI [49]: > 100 µM
- GI50 [50]: 41.7 µM
- TGI [50]: > 100 µM
- GI50 [51]: > 100 µM
- TGI [51]: > 100 µM
- GI50 [52]: > 100 µM
- TGI [52]: > 100 µM
- GI50 [53]: 0.182 µM
- TGI [53]: 10.8 µM
- GI50 [54]: > 100 µM
- TGI [54]: > 100 µM
- GI50 [55]: 8.97 µM
- TGI [55]: > 100 µM
